Data from ChEMBL document CHEMBL1127015, “Centrally acting serotonergic and dopaminergic agents. 1. Synthesis and structure-activity relationships of 2,3,3a,4,5,9b-hexahydro-1H-benz[e]indole derivatives” (J Med Chem, 1993).
pKi: −log10 of the molar value. Where “and” joins values, the source holds several entries; their conditions need not be identical. Equal values may be shown once.

Experiments:
[1] = test system: Mus musculus; assay: Maximum decrease in temperature when compound is administered subcutaneously; type: functional
[2] = test system: Mus musculus; assay: Antagonism of apomorphine for 0-10 minutes in reserpinized mice when a dose of 38 micro mol/kg is administered intraperitoneally; type: functional
[3] = molecular target: T1, D(2) dopamine receptor (Homo sapiens, UniProt P14416); assay: Binding affinity against [3H]U-86,170-labeled dopamine receptor D2 in cloned CHO cells; type: cell-based
[4] = test system: Mus musculus; assay: Antagonism of apomorphine effects in reserpinized mice following 0.4 umol/kg i.p.; type: functional
[5] = test system: Mus musculus; assay: Antagonism of apomorphine effects for 0-10 minutes in reserpinized mice following 0.4 umol/kg i.p.; type: functional; set-up: unit not given beside the values
[6] = test system: Mus musculus; assay: Antagonism of apomorphine for 10-20 minutes in reserpinized mice when a dose of 38 micro mol/kg is administered intraperitoneally; type: functional
[7] = molecular target: T1, D(2) dopamine receptor; assay: Intrinsic activity from GTP shift using membranes from CHO cells transfected with mammalian dopamine receptor D2.; type: cell membranes
[8] = test system: Mus musculus; assay: Ability to stimulate dopaminergic systems by effect on locomotor activity in reserpinized mice when a dose of 38 micro mol/kg is administered intraperitoneally; type: functional
[9] = test system: Mus musculus; assay: Antagonism of apomorphine for 0-10 minutes in reserpinized mice when a dose of 3.8 micro mol/kg is administered intraperitoneally; type: functional
[10] = test system: Mus musculus; assay: Antagonism of apomorphine in reserpinized mice when a dose of 3.8 micro mol/kg is administered intraperitoneally; type: functional
[11] = test system: Mus musculus; assay: Increase in locomotor activity in reserpinized mice following 0.4 umol/kg i.p.; type: functional
[12] = test system: Mus musculus; assay: Antagonism of apomorphine in reserpinized mice when a dose of 38 micro mol/kg is administered intraperitoneally; type: functional
[13] = test system: Mus musculus; assay: Ability to stimulate dopaminergic systems by effect on locomotor activity in reserpinized mice when a dose of 3.8 micro mol/kg is administered intraperitoneally; type: functional
[14] = species on record: Rattus norvegicus; assay: Effect on the synthesis rates of serotonin (5-HTP accumulation) in the rat ventral limbic brain region at 3.8uMkg; type: functional, Limbic system
[15] = test system: Mus musculus; assay: Antagonism of apomorphine effects for 10-20 minutes in reserpinized mice following 0.4 umol/kg i.p.; type: functional
[16] = test system: Mus musculus; assay: Antagonism of apomorphine for 10-20 minutes in reserpinized mice when a dose of 3.8 micro mol/kg is administered intraperitoneally; type: functional
[17] = test system: Mus musculus; assay: Effective dose on hypothermia in mouse when administered subcutaneously; type: functional; conditions: sc
[18] = species on record: Rattus norvegicus; assay: Effect on the synthesis rates of serotonin (5-HTP accumulation) in the rat ventral limbic brain region at 3.8uMkg.; type: functional, Limbic system
[19] = test system: Rattus norvegicus; assay: Inhibition of firing rates of dopaminergic neurons in the substantia nigra pars compacta by intravenous injection in rats.; type: functional
[20] = test system: Mus musculus; assay: Ability to stimulate dopaminergic systems by effect on locomotor activity in reserpinized mice when a dose of 3.5 micro mol/kg is administered intraperitoneally; type: functional
[21] = molecular target: T2, D(2) dopamine receptor (Rattus norvegicus, UniProt P61169); assay: Binding affinity against [3H]raclopride-labeled dopamine receptor D2 in rat striatum.; type: tissue-based
[22] = molecular target: T1, D(2) dopamine receptor; assay: Compound was evaluated for the intrinsic activity from GTP shift against dopamine receptor D2; type: functional
[23] = test system: Mus musculus; assay: Antagonism of apomorphine for 10-20 minutes in reserpinized mice when a dose of 3.5 micro mol/kg is administered intraperitoneally; type: functional
[24] = test system: Mus musculus; assay: Ability to stimulate dopaminergic systems by effect on locomotor activity in reserpinized mice when a dose of 35 micro mol/kg is administered intraperitoneally; type: functional
[25] = test system: Mus musculus; assay: Antagonism of apomorphine in reserpinized mice when a dose of 3.5 micro mol/kg is administered intraperitoneally; type: functional
[26] = test system: Mus musculus; assay: Antagonism of apomorphine for 10-20 minutes in reserpinized mice when a dose of 35 micro mol/kg is administered intraperitoneally; type: functional
[27] = test system: Mus musculus; assay: Antagonism of apomorphine for 0-10 minutes in reserpinized mice when a dose of 3.5 micro mol/kg is administered intraperitoneally; type: functional
[28] = test system: Mus musculus; assay: Antagonism of apomorphine in reserpinized mice when a dose of 35 micro mol/kg is administered intraperitoneally; type: functional
[29] = test system: Mus musculus; assay: Antagonism of apomorphine for 0-10 minutes in reserpinized mice when a dose of 35 micro mol/kg is administered intraperitoneally; type: functional
[30] = molecular target: T2, D(2) dopamine receptor; assay: (§1) Compound was evaluated for the binding affinity against [3H]U-86,170-labeled dopamine receptor D2 in cloned CHO cells; type: cell-based
[31] = test system: Rattus norvegicus; assay: Effect on the synthesis rates of serotonin in the rat ventral limbic brain region 4.0 micro mol/kg. Values are given as percent change from the control; type: functional, Limbic system
[32] = test system: Mus musculus; assay: Effective dose on hypothermia in mouse when administered subcutaneously (95% confidence levels); type: functional; conditions: sc
[33] = molecular target: T2, D(2) dopamine receptor; assay: Inhibition concentration against [3H]raclopride-labeled dopamine receptor D2 in rat striatum was estimated by single point experiment. compound was run at 1 uM; type: tissue-based
[34] = test system: Rattus norvegicus; assay: Effect on the synthesis rates of dopamine in the rat ventral limbic brain region at 4.0 micro mol/kg. Values are given as percent change from the control (*p<0.05); type: functional, Limbic system
[35] = test system: Mus musculus; assay: Antagonism of apomorphine for 0-10 minutes in reserpinized mice when a dose of 36 micro mol/kg is administered intraperitoneally; type: functional
[36] = test system: Mus musculus; assay: Antagonism of apomorphine in reserpinized mice when a dose of 3.6 micro mol/kg is administered intraperitoneally; type: functional
[37] = test system: Felis catus; assay: Maximum decrease of sympathetic nerve activity (SND) in anesthetized cat has been expressed as percent control; type: functional; set-up: scale not given: the % may be the effect or the level left
[38] = test system: Mus musculus; assay: Antagonism of apomorphine for 10-20 minutes in reserpinized mice when a dose of 3.6 micro mol/kg is administered intraperitoneally; type: functional
[39] = test system: Felis catus; assay: Maximum decrease of arterial blood pressure at sympathetic nerve activity (SND) in anesthetized cat has been observed following 1 mg/kg dose; type: functional; set-up: scale not given: the % may be the effect or the level left
[40] = test system: Mus musculus; assay: Antagonism of apomorphine for 10-20 minutes in reserpinized mice when a dose of 36 micro mol/kg is administered intraperitoneally; type: functional
[41] = test system: Mus musculus; assay: Antagonism of apomorphine for 0-10 minutes in reserpinized mice when a dose of 3.6 micro mol/kg is administered intraperitoneally; type: functional
[42] = species on record: Rattus norvegicus; assay: Effect on the synthesis rates of serotonin (5-HTP accumulation) in the rat ventral limbic brain region at 10.7uMkg. value as percent change from the control; type: functional, Limbic system
[43] = species on record: Rattus norvegicus; assay: Effect on the synthesis rates of serotonin (5-HTP accumulation) in the rat ventral limbic brain region at 10.7uMkg.; type: functional, Limbic system
[44] = test system: Mus musculus; assay: Antagonism of apomorphine in reserpinized mice when a dose of 36 micro mol/kg is administered intraperitoneally; type: functional
[45] = test system: Mus musculus; assay: Ability to stimulate dopaminergic systems by effect on locomotor activity in reserpinized mice when a dose of 36 micro mol/kg is administered intraperitoneally; type: functional
[46] = test system: Mus musculus; assay: Ability to stimulate dopaminergic systems by effect on locomotor activity in reserpinized mice when a dose of 3.6 micro mol/kg is administered intraperitoneally; type: functional
[47] = molecular target: T1, D(2) dopamine receptor; assay: as §1; type: cell-based
[48] = test system: Rattus norvegicus; assay: Inhibition of firing rates of dopaminergic neurons in the substantia nigra pars compacta by intravenous injection in rats; type: functional
[49] = test system: Rattus norvegicus; assay: Inhibition of firing rates of serotonergic neurons in the substantia nigra pars compacta by intravenous injection in rats.; type: functional
[50] = test system: Mus musculus; assay: Time of effect in the face-to-face behavioral assay in the mouse when a dose of 3.6 micro mol/kg is administered perorally; type: functional
[51] = test system: Mus musculus; assay: Time of effect in the isolation-induced aggression behavioral assay in the mouse when a dose of 0.0 micro mol/kg is administered perorally; type: functional
[52] = test system: Mus musculus; assay: Time of effect in the isolation-induced aggression behavioral assay in the mouse when a dose of 36 micro mol/kg is administered perorally; type: functional
[53] = test system: Mus musculus; assay: Time of effect in the face-to-face behavioral assay in the mouse when a dose of 36 micro mol/kg is administered perorally; type: functional
[54] = test system: Mus musculus; assay: Time of effect in the face-to-face behavioral assay in the mouse when a dose of 0.4 micro mol/kg is administered perorally; type: functional
[55] = test system: Mus musculus; assay: Time of effect in the face-to-face behavioral assay in the mouse when a dose of 0.0 micro mol/kg is administered perorally; type: functional

T2 sequence (P61169 whole entry): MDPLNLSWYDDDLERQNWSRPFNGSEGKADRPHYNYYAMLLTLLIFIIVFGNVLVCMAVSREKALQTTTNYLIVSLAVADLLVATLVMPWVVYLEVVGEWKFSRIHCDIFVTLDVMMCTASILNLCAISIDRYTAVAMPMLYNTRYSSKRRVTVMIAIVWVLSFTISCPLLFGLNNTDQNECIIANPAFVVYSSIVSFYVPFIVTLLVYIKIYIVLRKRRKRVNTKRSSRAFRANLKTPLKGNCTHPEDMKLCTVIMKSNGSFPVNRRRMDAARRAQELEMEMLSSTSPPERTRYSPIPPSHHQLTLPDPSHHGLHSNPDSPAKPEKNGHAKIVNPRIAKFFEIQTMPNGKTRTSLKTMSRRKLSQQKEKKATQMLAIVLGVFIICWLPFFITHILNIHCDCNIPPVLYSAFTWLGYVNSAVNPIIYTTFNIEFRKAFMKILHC
T1 sequence (P14416 whole entry): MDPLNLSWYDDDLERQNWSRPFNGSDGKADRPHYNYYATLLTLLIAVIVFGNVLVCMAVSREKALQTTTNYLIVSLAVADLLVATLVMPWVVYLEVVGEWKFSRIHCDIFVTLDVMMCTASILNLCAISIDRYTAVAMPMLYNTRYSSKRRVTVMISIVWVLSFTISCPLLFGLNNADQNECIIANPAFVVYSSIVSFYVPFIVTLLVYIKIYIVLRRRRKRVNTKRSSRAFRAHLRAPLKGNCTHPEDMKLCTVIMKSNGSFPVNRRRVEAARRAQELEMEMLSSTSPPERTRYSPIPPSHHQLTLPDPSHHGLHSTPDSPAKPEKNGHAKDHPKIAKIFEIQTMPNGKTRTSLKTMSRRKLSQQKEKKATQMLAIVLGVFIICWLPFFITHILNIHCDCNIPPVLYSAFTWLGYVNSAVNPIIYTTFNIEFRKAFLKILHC

SMILES	Max temperature decrease [1]	Locomotor activity [2]	Locomotor activity [4]	Locomotor activity [5]	Locomotor activity [6]	Intrinsic activity [7] [%]	Locomotor activity [8]	Locomotor activity [9]	Locomotor activity [10]	Locomotor activity [11]	Locomotor activity [12]	Locomotor activity [13]	Locomotor activity [15]	Locomotor activity [16]	ED50 [17] [µmol/kg]	pKi [21]	Locomotor activity [35]	Locomotor activity [36]	Locomotor activity [38]	Locomotor activity [40]	also measured
C=CCN1CC[C@@H]2c3cccc(O)c3CC[C@H]21 (racemic)	2.1	5	109	65	8	44	53	29	67	12	6	4	83	82	113	–	–	–	–	–	pKi [3]: 8.39; Control [14]: 73%; Control [18]: -12%; ED50 ([19]; Rattus norvegicus, Substantia nigra pars compacta, iv, read-out: ED50): 0.97 µmol/kg
CCCN1CC[C@H]2c3c(cccc3OC)CC[C@H]21	–	–	41	60	–	–	–	–	–	19	–	–	93	–	–	7.17	–	–	–	–	Locomotor activity [20]: 36; Intinsic activity [22]: 37%; Locomotor activity [23]: 67; Locomotor activity [24]: 69; Locomotor activity [25]: 6; Locomotor activity [26]: 51; Locomotor activity [27]: 72; Locomotor activity [28]: 9; Locomotor activity [29]: 49
C=CCN1CC[C@H]2c3c(O)cccc3CC[C@H]21 (racemic)	–	54	46	56	69	–	32	78	8	135	11	63	62	68	–	–	–	–	–	–	pKi [30]: 6.82
C=CCN1CC[C@@H]2c3ccccc3CC[C@H]21 (racemic)	4.5	–	–	–	–	–	–	–	–	–	–	–	–	–	–	–	–	–	–	–	Control [31]: -7%; ED50 [32]: 45 µmol/kg; pKi [33]: < 6.00; Control [34]: 26%
C=CCN1CCC2c3cccc(OC)c3CC[C@H]21 (mixture of isomers)	–	–	73	91	–	0	–	–	–	15	–	–	92	–	> 107	7.38	33	27	59	17	Control [37]: 132%; Control [39]: 98%; Locomotor activity [41]: 112; Control [42]: -4%; Control [43]: 147%; Locomotor activity [44]: 1; Locomotor activity [45]: 9; Locomotor activity [46]: 9; ED50 [19]: 0.42 µM/kg and 0.88 µM/kg
COc1cccc2c1C1CCN(CCc3ccccc3)[C@H]1CC2 (stereo partly specified)	–	–	–	–	–	–	–	–	–	–	–	–	–	–	–	–	–	–	–	–	pKi [47]: 6.41
C=CCN1CC[C@H]2c3cccc(OC)c3CC[C@H]21	–	–	78	164	–	0	–	–	–	17	–	–	120	–	–	7.60	52	62	105	38	Locomotor activity [41]: 130; ED50 [48]: 0.91 µmol/kg; Locomotor activity [44]: 21; Locomotor activity [45]: 3; Locomotor activity [46]: 5; ED50 [49]: 0.24 µmol/kg
C=CCN1CCC2c3c(cccc3OC)CC[C@@H]21 (single isomer, unassigned; (+))	3.9	–	103	83	–	17	–	–	–	8	–	–	92	–	62	–	54	114	77	67	Time [50]: 0.6 s; Time [51]: 27 s; Time [52]: 21 s; Time [53]: 1 s; Locomotor activity [41]: 73; Time [54]: 0.9 s; Time [55]: 0.8 s; Locomotor activity [44]: 115; Locomotor activity [45]: 18; Locomotor activity [46]: 12
C=CCN1CCC2c3cccc(O)c3CC[C@H]21 (single isomer, unassigned; (-))	–	22	54	110	23	22	3	97	62	73	7	8	105	115	–	7.31	–	–	–	–	pKi [3]: 6.97; Control [14]: 45%; Control [18]: -0.3%
